Source: patent US20250276980A1, “SALTS OF A HETEROCYCLIC COMPOUND AND CRYSTALLINE FORMS, PROCESSES FOR PREPARING, THERAPEUTIC USES, AND PHARMACEUTICAL COMPOSITIONS THEREOF” (Sunovion Pharmaceuticals Inc., priority 2020, published 2025)
“Also recorded” adds a separate entry of the source. Where two headings read alike, the source gives them in different places. Blank lines part the entries; values can stand above or below the molecule they belong to.

How the values were obtained:
Format in all cases: physicochemical
[1] = Dynamic vapor sorption (DVS) moisture sorption isotherm, Hiden IGA-sorp; settings: for weight gain when humidity increased from 0% RH to 95% RH: 25° C., 0% RH up to 95% RH
Procedure: (§1) DVS moisture sorption isotherms were generated using a Hiden Analytical IGA-sorp moisture sorption analyzer. Samples were run as received without pre-analysis drying. Each sample was equilibrated between about 30 and 120 minutes at each relative humidity (RH) step. Temperature was fixed at about 25° C. and the relative humidity steps (0 to 95% RH) were in 5-10% increments. Sample sizes ranged from 3 to 30 mg. After DVS measurement, XRPD was measured in order to check the solid form. Dynamic Vapor sorption (DVS) moisture sorption isotherms were generated using IGA-sorp moisture sorption analyzer (Hiden Analytical). Sample measurements were run without drying before analyses. XRPD was measured in order to check any changes of the solid form after the moisture sorption/desorption. The measurement condition is shown below: • Time at each RH steps: From 30 to 120 minutes • Relative humidity steps: 5 or 10% steps • Temperature: 25° C.

[2] = Thermogravimetric analysis (TGA); settings: for TG weight loss: from 70° C., hydrochloride
Procedure: TGA analyses were performed using a TA Instruments TGA Q500 thermogravimetric analyzer. Each sample was analyzed on a platinum pan, heated under a nitrogen purge at a rate of 10° C./min, from room temperature to 250° C. or 300° C.
Thermo-Gravimetric Analyzer (TGA) analyses were performed using TGA Q500 thermogravimetric analyzer (TA Instruments). Each sample was analyzed on a platinum pan. The measurement condition is shown below: • Atmosphere: Nitrogen • Elevated temperature rate: 10° C./min • Temperature range: From room temperature to 250 or 300° C.

[3] = Solubility of Compound 1 Tosylate in solvents
Procedure: Considering the formation of the genotoxic impurities with alcohol, water was selected as the solvent and acetone as the anti-solvent. The solubility in the water-acetone binary solvent system indicates the feasibility for crystallization in this solvent system. Further solubility was also measured to help define the operation conditions.

[4] = Differential scanning calorimetry (DSC); settings: sealed pan, 10° C./min
Procedure: DSC chart was obtained using a TA Instruments DSC Q1000 differential scanning calorimeter. Each sample was analyzed in a crimped pan with a pinhole, heated under a nitrogen purge at a rate of 10° C./min, from 10° C. to 250° C. or 300° C.
Differential Scanning Calorimeter (DSC) chart was obtained by DSC Q1000 differential scanning calorimeter (TA Instruments). Each sample was analyzed in a crimped pan with a pinhole. The measurement condition is shown below: • Atmosphere: Nitrogen • Elevated temperature rate: 10° C./min • Temperature range: From 10° C. to 250 or 300° C.
All DSC analyses were performed using TA Instruments Q100 differential scanning calorimeter. Lots 1-3 were analyzed in a sealed pan. Each sample was heated under a 50 mL/min nitrogen purge at a heating rate of 10° C./min, from a starting temperature of 25° C. up to a final temperature of 300° C. Sample size ranged from […].

[5] = Temperature controlled XRPD (crystal form stability on heating); settings: up to melting
Procedure: Temperature controlled XRPD was measured by the X'pert-MPD with an Anton Paar TCU 100 Temperature Control Unit. Sample was measured from 30° C. to 250° C. or 270° C. with 10° C. increments. Measurement conditions were as follows: range: 4-30°, step: 0.017°, time per step: 100 s.
FT-Raman, XRPD, DSC, TGA, and DVS instruments and techniques were similar to those in Example 3. Temperature controlled XRPD was measured by X'pert-Pro MIPD (Spectris) with TCU 100 Temperature Control Unit (Anton Paar). The temperature of the sampling stage was increased step by step as programmed and XRPD patterns of sample were measured at each step. The measurement condition is shown below: • Range angle: From 4 to 30° • Step size: 0.017° • Time per step: 100 s

[6] = Storage at 75% RH (saturated NaCl), solid form checked by Raman/XRPD; settings: overnight / 1 day
Procedure: Fumaric acid salt Form FB has about 3.8% weight loss from low temperature with TGA measurement. From DVS result, there is about 5% weight gain at over 75% RH, so polymorphic form seems to be changed. […] Therefore, Form FA seems to be di-hydrate. Form FB seems to be mono-hydrate. The thermal behavior of Form FA is a little different from that of Form FB. Form FA generated the experiment described above using about 28 mg of fumaric acid and about 2 mL of THE seems to be easy to be dehydrated. It can be affected by vacuum dry. When Form FA and Form FB are placed under dry condition or heated, anhydrous form can be obtained. But they are quickly transformed to be hydrous form by obtaining water in the air.
It was confirmed that Form HC was reproducible even in the scale up study. […] The NMR spectrum shown indicated no presence of organic solvents.

[7] = XRPD before and after DVS measurement (moisture sorption/desorption)
Procedure: as §1

[8] = Polymorph study of Compound 1 Hydrochloride (solvent, slurry screening, scale up; FT-Raman/XRPD); settings: on filtration/drying, humidity or room temperature
Procedure: FT-Raman analyses were performed by using MultiRAM (Bruker Optics). Each suspension or dry powder sample was measured from out of glass vial. The measurement condition is shown below: • Excitation wavelength: 1064 nm • Laser power: 500 mW • Wavenumber: 4 cm-1 • Sample scan: 128 times
X-ray Powder Diffraction (XRPD) spectra were obtained by X′ pert Pro MPD (Spectris). X-rays was generated with Cu Kα radiation. The powder samples were put on the reflection free sample plate. The XRPD patterns were analyzed by HighScorePlus. The measurement condition is shown below: • Range angle: From 4 to 30°, to 40° and to 65° (20) • Step size: 0.017° • Time per step: 100 s
Compound 1 Hydrochloride, Form HA (about 5 mg) was put into each small glass vial and various types of solvents were added until the sample was dissolved at about 90° C. or boiling point. Maximum volume of solvent was about 500 μL. After the solution and suspension was heated for a few hours, the heater was switched off and the sample was cooled. The vials were preserved at about 5° C. Crystals obtained in the vials were measured directly by FT-Raman. After solvent was evaporated by opening the cap of vial, crystals obtained were also measured directly by FT-Raman. Solids were then collected and evaluated by XRPD and thermal analysis as needed.
Compound 1 Hydrochloride, Form HA (about 10 mg) was put into each small glass vial and various types of organic solvents mixed with water were added. After each sample was suspended at room temperature for about 3 days, suspended solids in the vials were measured directly by FT-Raman. Furthermore, each sample was suspended at about 50° C. for about 3 days and these were measured directly by FT-Raman. Solids were then collected and evaluated by XRPD, thermal analysis and DVS as needed.
Compound 1 Hydrochloride, Form HA (about 100 mg) was put into a glass vial and about 1 mL of EtOH mixed with water (10:1) was added. […] It was analyzed by XRPD, thermal analysis, ^1H-NMR, elemental analysis and ion-chromatography.

[9] = Lot 1, recrystallized from water/acetone
[10] = Lot 2, recrystallized from water/acetone
[11] = Lot 3, recrystallized from water/acetone

Structure (SMILES): CNC[C@@H]1OCCn2nc3ccccc3c21.O=S(=O)(O)c1ccccc1 [Compound 1 Besylate, (S)-1-(3,4-dihydro-1H-[1,4]oxazino[4,3-b]indazol-1-yl)-N-methylmethanamine benzenesulfonate]
weight gain at 95% RH ([1]; about 25° C.): about 2%
hygroscopicity (in words) ([1]; listed as besylate, benzenesulfonate): less hygroscopicity; also recorded: low hygroscopicity
TGA weight loss (in words) [2]: no weight loss until melting

Structure (SMILES): CNC[C@@H]1OCCn2nc3ccccc3c21.O=C(O)/C=C/C(=O)O [Compound 1 Fumarate, (S)-1-(3,4-dihydro-1H-[1,4]oxazino[4,3-b]indazol-1-yl)-N-methylmethanamine fumarate]
hygroscopicity (in words) [1]: no hygroscopicity

Structure (SMILES): CNC[C@@H]1OCCn2nc3ccccc3c21.O=P(O)(O)O [Compound 1 Phosphate, (S)-1-(3,4-dihydro-1H-[1,4]oxazino[4,3-b]indazol-1-yl)-N-methylmethanamine phosphate]
TGA weight loss (in words) ([2]; listed as phosphate salt, phosphate): large amount of weight loss at low temperature
TGA weight loss (in words) ([2]; phosphate): large amount of weight loss from low temperature

Structure (SMILES): CNC[C@@H]1OCCn2nc3ccccc3c21.Cc1ccc(S(=O)(=O)O)cc1 [Compound 1 Tosylate, (S)-1-(3,4-dihydro-1H-[1,4]oxazino[4,3-b]indazol-1-yl)-N-methylmethanamine tosylate]
weight gain at 95% RH ([1]; about 25° C.): about 1%
hygroscopicity (in words) ([1]; listed as Tosylate, tosylate): less hygroscopicity
hygroscopicity (in words) ([1]; listed as tosylate, tosylate): low hygroscopicity
solubility (in words) [3]: decent solubility in methanol and water
DSC Onset [4, 9]: 240.5 °C
DSC Peak [4, 9]: 241.9 °C
DSC ΔHf [4, 9]: 122 J/g
DSC Onset [4, 10]: 240.2 °C
DSC Peak [4, 10]: 241.7 °C
DSC ΔHf [4, 10]: 113 J/g
DSC Onset [4, 11]: 239.7 °C
DSC Peak [4, 11]: 241.4 °C
DSC ΔHf [4, 11]: 123 J/g

Structure (SMILES): CNC[C@@H]1OCCn2nc3ccccc3c21.O=S(=O)(O)c1ccccc1 [Form BA, (S)-1-(3,4-dihydro-1H-[1,4]oxazino[4,3-b]indazol-1-yl)-N-methylmethanamine benzenesulfonate]
weight gain at 90% RH ([1]; another batch of Form BA): about 1%
weight gain at 90% RH ([1]; one batch of Form BA): about 2%
weight gain at 95% RH ([1]; another batch of Form BA): about 2%
weight gain at 95% RH ([1]; one batch of Form BA): about 8%
hygroscopicity (in words) ([1]; benzenesulfonate): less hygroscopicity; also recorded: good hygroscopicity behavior
transformation to another polymorph on heating [5]: not transformed to any other polymorph

Structure (SMILES): CNC[C@@H]1OCCn2nc3ccccc3c21.O=C(O)/C=C/C(=O)O [Form FA, (S)-1-(3,4-dihydro-1H-[1,4]oxazino[4,3-b]indazol-1-yl)-N-methylmethanamine fumarate]
transformation to another polymorph on heating [5]: not transformed to any other polymorph

Structure (SMILES): CNC[C@@H]1OCCn2nc3ccccc3c21.Cl [Form HB, (S)-1-(3,4-dihydro-1H-[1,4]oxazino[4,3-b]indazol-1-yl)-N-methylmethanamine hydrochloride]
stability of the crystal form [8]: transformed to Form HC or Form HA when it was filtrated and dried; also recorded: Not stable

Structure (SMILES): CNC[C@@H]1OCCn2nc3ccccc3c21.Cl [Form HD, (S)-1-(3,4-dihydro-1H-[1,4]oxazino[4,3-b]indazol-1-yl)-N-methylmethanamine hydrochloride]
stability of the crystal form [8]: Transformed to Form C at room temperature

Further lines, with some results ahead:

weight gain at over 75% RH ([1]; over 75% RH): about 5%
TGA weight loss ([2]; from low temperature): about 3.8%
change of crystal form on storage at high humidity [6]: Form FA was observed
Structure (SMILES): CNC[C@@H]1OCCn2nc3ccccc3c21.O=C(O)/C=C/C(=O)O [Form FB, (S)-1-(3,4-dihydro-1H-[1,4]oxazino[4,3-b]indazol-1-yl)-N-methylmethanamine fumarate]

weight gain at 95% RH ([1]; about 25° C.): over 100%
hygroscopicity (in words) ([1]; hydrochloride): Highly hygroscopic
TG weight loss [2]: over 17.1%
Structure (SMILES): CNC[C@@H]1OCCn2nc3ccccc3c21.Cl [Form HA, (S)-1-(3,4-dihydro-1H-[1,4]oxazino[4,3-b]indazol-1-yl)-N-methylmethanamine hydrochloride]
change of crystal form after DVS measurement ([7]; hydrochloride): transformed to Form HC mixed with an unidentified polymorph

weight gain when humidity increased from 0% RH to 95% RH [1]: 9.3%
weight gain between 60% RH and 70% RH ([1]; between 60% RH and 70% RH): 6.5%
hygroscopicity (in words) ([1]; hydrochloride): hygroscopic
TG weight loss [2]: 6.6%
change of crystal form on storage at high humidity [6]: transformed to Form HD
change of crystal form after DVS measurement ([7]; hydrochloride): basically stable
Structure (SMILES): CNC[C@@H]1OCCn2nc3ccccc3c21.Cl [Form HC, (S)-1-(3,4-dihydro-1H-[1,4]oxazino[4,3-b]indazol-1-yl)-N-methylmethanamine hydrochloride]
stability of the crystal form [8]: Transformed to Form D at the humidity level of more than 70% RH

weight gain when humidity increased from 0% RH to 95% RH [1]: ~1%
TGA weight loss (in words) [2]: no weight loss until melting
change of crystal form after DVS measurement [7]: no changes of the crystal form
Structure (SMILES): CNC[C@@H]1OCCn2nc3ccccc3c21.Cc1ccc(S(=O)(=O)O)cc1 [Form TA, (S)-1-(3,4-dihydro-1H-[1,4]oxazino[4,3-b]indazol-1-yl)-N-methylmethanamine tosylate]
hygroscopicity (in words) ([1]; tosylate): less hygroscopicity; also recorded: good hygroscopicity behavior; also recorded: non-hygroscopicity
transformation to another polymorph on heating ([5]; tosylate): not transformed to any other polymorph; also recorded: not transformed to another form until the melting point
